This note sets out measurements from ChEMBL document CHEMBL1201862, “PubChem BioAssay data set” (2004).

SMILES strings stand for the structures.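 Compound exposure: 48 hours, 5 concentrations, 96-well plates. Abbreviation: GI50, concentration required for 50% inhibition of growth.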 The source made the active and inactive calls. No stated cut-off is given here; in the data, active = GI50 up to about 1.1 µM and inactive = higher.

Among the test systems are NCI/ADR-RES; BT-549; HCT-15; A549; Malme-3M; Hs-578T; NCI-H522; UACC-257; SF-268; SF-295; NCI-H226; SW-620; M14; SNB-19; COLO 205; SR; UACC-62; IGROV-1; MDA-MB-435; MDA-N.
What all share (assay): inhibition of tumour cell growth, NCI panel, 48 h

`O=[N+]([O-])C(=C(Nc1ccccc1)Nc1ccccc1)/C(Cl)=C(\Cl)Br`: the GI50 in the test on NCI/ADR-RES was 9.48 µM (inactive); in the test on BT-549 it was 21.7 µM (inactive); in the test with HCT-15 it was 11.9 µM; in the test on A549 it was 20.7 µM (inactive); with Malme-3M, 16.5 µM (inactive); with Hs-578T, 27 µM (inactive). Moreover, the GI50 in the test with NCI-H522 is 2.51 µM (inactive); in the test on UACC-257, 14.7 µM (inactive); in the test with SF-268 it was 16.8 µM (inactive); in the test with SF-295, 14.8 µM (inactive); with NCI-H226 it was 0.671 µM (active); in the test with SW-620, 6.82 µM (inactive). For the same compound, the GI50 in the test with M14 was 4.89 µM (inactive); in the test with SNB-19, > 10 µM (inactive); in the test with COLO 205, > 10 µM (inactive); with SR, 5.01 µM (inactive).
For `NC1CC(=O)c2ccccc21` (stereo not drawn), the GI50 was > 100 µM (inactive) with NCI/ADR-RES; > 100 µM (inactive) with BT-549; more than 100 µM in the test with HCT-15; > 100 µM (inactive) in the test on A549; > 100 µM (inactive) in the test on Hs-578T; > 100 µM (inactive) in the test on NCI-H522. Also, the GI50 in the test with UACC-257, with SF-268, with UACC-62, with IGROV-1, in the test with SF-295 and in the test with MDA-MB-435 was > 100 µM (inactive) throughout. The GI50 in the test on NCI-H226, in the test with SW-620, with M14, in the test with SNB-19 and with COLO 205 was > 100 µM (inactive) throughout.
Take `CCNCCNC(=O)c1ccc(Br)cc1`: the GI50 is > 100 µM (inactive) with NCI/ADR-RES; > 100 µM (inactive) with BT-549; more than 100 µM in the test on HCT-15; > 100 µM (inactive) with A549; > 100 µM (inactive) with Hs-578T; > 100 µM (inactive) in the test with SF-268. Also, the GI50 in the test on UACC-62, with IGROV-1, with NCI-H226, with SW-620, with M14 and with SNB-19 was > 100 µM (inactive) in each case. For the same compound, the GI50 with SR is > 100 µM (inactive).
As to `Cc1cc(Cl)ccc1C(=O)c1ccc2ccccc2c1C(=O)O`, the GI50 in the test on NCI/ADR-RES is > 100 µM (inactive); in the test with MDA-N, > 100 µM (inactive); in the test on BT-549 it was > 100 µM (inactive); in the test with HCT-15 it was more than 100 µM; in the test with A549, > 100 µM (inactive); in the test on Malme-3M it was > 100 µM (inactive). Moreover, the GI50 is > 100 µM (inactive) in the test on NCI-H522; > 100 µM (inactive) in the test with UACC-257; > 100 µM (inactive) in the test on SF-268; > 100 µM (inactive) in the test on UACC-62; > 100 µM (inactive) with IGROV-1; 98.9 µM (inactive) in the test on SF-295. Moreover, the GI50 in the test on MDA-MB-435, in the test with NCI-H226, in the test with SW-620, in the test on M14, in the test on SNB-19 and with COLO 205 was > 100 µM (inactive) throughout. The GI50 in the test on SR was > 100 µM (inactive).
With `CO/C(=N\N=C\c1ccc(Cl)cc1Cl)c1ccncc1`, the GI50 with NCI/ADR-RES was > 10 µM (inactive); with MDA-N it was 4.51 µM (inactive); in the test on BT-549, > 10 µM (inactive); with HCT-15, more than 10 µM; in the test with A549, > 10 µM (inactive); in the test on Malme-3M, > 10 µM (inactive). The GI50 is > 10 µM (inactive) in the test with NCI-H522; > 10 µM (inactive) with UACC-257; > 10 µM (inactive) in the test on SF-268; > 10 µM (inactive) with SF-295; 3.66 µM (inactive) in the test with MDA-MB-435; > 10 µM (inactive) with NCI-H226. In addition, the GI50 with SW-620, with M14, in the test with SNB-19, with COLO 205 and in the test with SR was > 10 µM (inactive) throughout.
As for `COc1ccc2c(c1)OCC1Cc3cccc(OC)c3OC21` (stereo not drawn), the GI50 is 31.1 µM (inactive) in the test on NCI/ADR-RES; 50.5 µM (inactive) with MDA-N; 26.9 µM (inactive) in the test with BT-549; 48 µM with HCT-15; 70 µM (inactive) in the test on A549; 70.8 µM (inactive) with Malme-3M. For the same compound, the GI50 in the test with NCI-H522 is 55.6 µM (inactive); with UACC-257, 36.1 µM (inactive); in the test on SF-268 it was > 100 µM (inactive); in the test on UACC-62, 71.1 µM (inactive); in the test on IGROV-1, 66.7 µM (inactive); in the test on SF-295 it was 64.6 µM (inactive). Further, the GI50 was 28.7 µM (inactive) in the test on MDA-MB-435; 67.3 µM (inactive) in the test on NCI-H226; 60.3 µM (inactive) in the test with SW-620; 96.2 µM (inactive) with M14; 41.6 µM (inactive) in the test on COLO 205; 59.7 µM (inactive) with SR.
For `N#C/C(C(=O)NCc1ccccc1)=C(/N)N1CCCC1`, the GI50 was > 100 µM (inactive) in the test with NCI/ADR-RES; > 100 µM (inactive) in the test with MDA-N; more than 100 µM in the test with HCT-15; > 100 µM (inactive) in the test on A549; > 100 µM (inactive) with Malme-3M; > 100 µM (inactive) with Hs-578T. The GI50 in the test on NCI-H522, in the test on UACC-257, in the test with SF-268, in the test with UACC-62, in the test with IGROV-1 and in the test on SF-295 was > 100 µM (inactive) in each case. Besides, the GI50 in the test on MDA-MB-435, with NCI-H226, with SW-620, in the test with M14, with SNB-19 and with COLO 205 was > 100 µM (inactive) in each case. Further, in the test on SR, the GI50 was > 100 µM (inactive).
Take `Cc1c(-c2ccc(O)c(O)c2)oc(=O)c2c(O)cccc12`: the GI50 with NCI/ADR-RES was 10.5 µM (inactive); with BT-549, 6.24 µM (inactive); with HCT-15, 3.96 µM; in the test with A549 it was 7.93 µM (inactive); in the test on Malme-3M, 13.3 µM (inactive); in the test with Hs-578T, 3.03 µM (inactive). Also, the GI50 with NCI-H522 was 2.95 µM (inactive); in the test on UACC-257 it was 15.7 µM (inactive); with SF-268, 9.1 µM (inactive); in the test on IGROV-1, 5.82 µM (inactive); in the test on SF-295, 17.7 µM (inactive); in the test on MDA-MB-435, 3.17 µM (inactive). Further, the GI50 in the test with SW-620 was 12.2 µM (inactive); in the test on M14 it was 8.05 µM (inactive); in the test on SNB-19 it was 6.3 µM (inactive); in the test with COLO 205, 9.71 µM (inactive).
Take `CCCCc1cc2c(cc1O)CCC1C2CC[C@@]2(C)C1CC[C@@H]2O` (stereo partly drawn): the GI50 with NCI/ADR-RES was 18.7 µM (inactive); with MDA-N it was 23.4 µM (inactive); with HCT-15, 23.8 µM; in the test on A549, 13.5 µM (inactive); in the test with Malme-3M it was 20.7 µM (inactive); with Hs-578T, 11.3 µM (inactive). Further, the GI50 with NCI-H522 was 14 µM (inactive); with UACC-257, 15.4 µM (inactive); with SF-268 it was 29.6 µM (inactive); in the test with UACC-62 it was 11.6 µM (inactive); in the test on IGROV-1, 22 µM (inactive); with SF-295 it was 13.3 µM (inactive). Moreover, the GI50 is 16.9 µM (inactive) in the test with MDA-MB-435; 16.9 µM (inactive) in the test on NCI-H226; 20.2 µM (inactive) in the test with SW-620; 18.9 µM (inactive) in the test with M14; 25.5 µM (inactive) with SNB-19; 24.7 µM (inactive) in the test with COLO 205. In addition, in the test on SR, the GI50 was 21.4 µM (inactive).
Take `CO/N=C(\C(=O)Nn1cn[n+](CC(=O)[O-])c1)c1csc(N)n1`: the GI50 was > 10 µM (inactive) with MDA-N; > 10 µM (inactive) in the test on BT-549; more than 10 µM in the test on HCT-15; > 10 µM (inactive) with A549; > 10 µM (inactive) in the test with UACC-257; > 10 µM (inactive) in the test with SF-268. Also, the GI50 in the test on UACC-62, in the test with IGROV-1, in the test on SW-620, in the test on M14, in the test with COLO 205 and in the test with SR was > 10 µM (inactive) throughout.
`COc1ccc(/C(Cl)=C(\C=O)c2cc(OC)c(OC)c(OC)c2)cc1OC`: the GI50 was 13.2 µM (inactive) with NCI/ADR-RES; 12.3 µM (inactive) with MDA-N; 19.8 µM with HCT-15; 33.3 µM (inactive) with A549; 15 µM (inactive) in the test on Malme-3M; 27.5 µM (inactive) in the test on Hs-578T. The GI50 with NCI-H522 is 7.38 µM (inactive); with UACC-257, 62.2 µM (inactive); in the test with SF-268, 23.8 µM (inactive); in the test on UACC-62 it was 15.7 µM (inactive); in the test on IGROV-1, 44.5 µM (inactive); with SF-295, 34.1 µM (inactive). Besides, the GI50 is 48.4 µM (inactive) in the test on MDA-MB-435; 19.8 µM (inactive) in the test with NCI-H226; > 61.2 µM (inactive) with SW-620; 56.4 µM (inactive) in the test with M14; > 52.6 µM (inactive) in the test with SNB-19; 27.5 µM (inactive) in the test with COLO 205. The GI50 in the test on SR was > 100 µM (inactive).
Regarding `N#Cc1c(-c2ccc([N+](=O)[O-])cc2)cc(-c2ccc(Nc3ccnc4cc(C(F)(F)F)ccc34)cc2)[nH]c1=O`, the GI50 in the test with NCI/ADR-RES is > 100 µM (inactive); in the test on BT-549 it was > 100 µM (inactive); with HCT-15 it was more than 100 µM; with A549, > 100 µM (inactive); in the test with Malme-3M it was > 100 µM (inactive); in the test on NCI-H522, > 100 µM (inactive). Also, the GI50 in the test with UACC-257, in the test with SF-268, in the test on UACC-62, in the test with IGROV-1, in the test with SF-295 and with MDA-MB-435 was > 100 µM (inactive) in each case. For the same compound, the GI50 is > 100 µM (inactive) with NCI-H226; > 100 µM (inactive) with SW-620; 80.9 µM (inactive) with M14; 24.4 µM (inactive) with SNB-19; 12.2 µM (inactive) with COLO 205; > 100 µM (inactive) with SR.
